Consider 3 molecules from patent US20170107254A1, “Modified Antimicrobial Peptides” (priority 2014, published 2017).

SMILES strings stand for the structures. In brackets after ≈: the same amount, converted by molar mass. Read-outs that look alike come from different tables or passages of the source.

One series in a line: in vitro. To be noted: human, A549 cells.
In series [1] the test system is C. albicans SC5314. It counts as cell-based. How it is done: 1×RPMI-1640 Buffered with Citrate Phosphate Buffer
Citrate phosphate buffer was prepared by mixing 0.1 M citric acid and 0.2 M dibasic sodium phosphate dodecahydrate in the proportions indicated in the Table 2 and the volume adjusted to 90 ml with dH2O.
pH buffered medium was prepared by dissolving 1.04 g RPMI-1640 premix powder in 10 ml citrate phosphate buffer. The volume was then adjusted to 40 ml with dH2O and the pH adjusted by addition of the acid or base. The volume was adjusted to 50 ml with dH2O. The medium was then filter sterilized by vacuum filtration through a 0.2 μm filter and stored at 4° C. and kept for up to 2 weeks.
The pH of RPMI-1640 was altered, using citrate phosphate buffer, to reflect the more acidic pH environment in the oral cavity. NP319 and NP377 were active against C. albicans SC5314 from pH 5.5-7.0 (Table 2). For all AMPs tested the optimum pH for activity was pH 5.5. NP377 maintained activity at 2 μg/ml from pH 5.5-7 with reduced activity at pH 5.

Series [2] has as its system C. albicans SC5314. The experiment in a line: MIC in the presence of 10% sterile filtered human saliva. It counts as cell-based. How it is done: AMPs of the same sequence length were tested versus C. albicans SC5314 in the presence of 10% (v/v) filtered human saliva at pH 7.0. Positive control is 1×RPMI-1640+cells, no peptide. Data is expressed as percentage of the positive growth controls. Data is the mean±standard error of the mean. (n=3)
Determination of Minimum Inhibitory Concentration (MIC) in Presence of Sterile Filtered Saliva
To test if saliva protease could result in a reduction in AMP antifungal activity against C. albicans, antifungal susceptibility testing was conducted in the presence of 10% (v/v) sterile filtered human saliva.

The test system of series [3] is human red blood cells (hRBC). The experiment in a line: Haemolysis of human red blood cells. Particulars: at 2500 μg/ml, 3 h.
Description: Peptides were tested for their haemolytic activity against human red blood cells (hRBC). Fresh hRBCs collected in BD Vacutainer® tubes with EDTA were rinsed 3 times with PBS (pH 7.4) by centrifugation for 10 min at 800 g and resuspended, 1 in 10 diluted with PBS. […] Release of haemoglobin was then calculated by transferring supernatant to a flat bottomed 96-well plate and measuring absorbance at 578 nm. hRBCs with no peptides added and H2O provided the controls.

Description for in vitro: The cell lines A549 (Human Lung Adenocarcinoma Epithelial Cell Line) and HepG2 (Human Hepatocellular Carcinoma Cell Line) were purchased from ATCC. A549 cells were maintained in F-12K medium (Gibco) containing 10% foetal bovine serum (Life Technologies) and 1% penicillin/streptomycin (Life Technologies) and HepG2 cells were maintained in Dulbecco's modified eagles medium (Gibco) containing 10% foetal bovine serum (Life Technologies), penicillin/streptomycin (Life Technologies) and 1% 0.01 mg/ml human transferrin (Sigma). Both were incubated at 37° C. with 5% CO2 until cells reached >80% confluence before splitting or experimental use.
Before exposure to peptides, the plate was incubated at 37° C. with 5% CO2 overnight to allow cells adhere. […] Medium was removed from the plate containing cells and peptide dilutions were transferred to cells and incubated for a further 3 h at 37° C. with 5% CO2. Cytotoxicity was determined by LIVE/DEAD® Viability/Cytotoxicity kit (Invitrogen Life Technologies), a working solution of 2 μM calcein AM and 4 μM EthD-1 and in conjunction Alamar Blue at a final concentration of 10% was added to the wells. Cells without peptides were the negative control and 1% DMSO was the positive control. Cells were incubated for 3 h again at 37° C. with 5% CO2.

One may read the CC50 as the concentration at which the toxic effect on the cells reaches its halfway point. Low values mean greater toxicity to the cells, high ones lower toxicity to the cells. For `CCCCCCCCCCCCCCCC(=O)N[C@@H](CCCNC(=N)N)C(=O)N[C@@H](CCCNC(=N)N)C(=O)N[C@@H](CCCNC(=N)N)C(=O)N[C@@H](CCCNC(=N)N)C(=O)N[C@@H](CCCNC(=N)N)C(=O)N[C@@H](CCCNC(=N)N)C(=O)N[C@@H](CCCNC(=N)N)C(=O)N[C@@H](CCCNC(=N)N)C(=O)N[C@@H](CCCNC(=N)N)C(=O)N[C@@H](CCCNC(=N)N)C(=O)N[C@@H](CCCNC(=N)N)C(=O)N[C@@H](CCCNC(=N)N)C(=O)O` [C16-(Rx12)], in “in vitro”, the 50% cytotoxic concentration (CC50) at 3 h stood at 30 µg/mL (≈ 14.1 µM).
What is called MIC50 is the lowest concentration that inhibits either 50% of growth or 50% of the strains tested, depending on the study. Low values mean greater potency, high ones weaker potency. On to `N=C(N)NCCC[C@@H](N)C(=O)N[C@H](CCCNC(=N)N)C(=O)N[C@H](CCCNC(=N)N)C(=O)N[C@H](CCCNC(=N)N)C(=O)N[C@H](CCCNC(=N)N)C(=O)N[C@H](CCCNC(=N)N)C(=O)N[C@H](CCCNC(=N)N)C(=O)N[C@H](CCCNC(=N)N)C(=O)N[C@H](CCCNC(=N)N)C(=O)N[C@H](CCCNC(=N)N)C(=O)N[C@H](CCCNC(=N)N)C(=O)N[C@H](CCCNC(=N)N)C(=O)N[C@H](CCCNC(=N)N)C(=O)N[C@H](Cc1c[nH]cn1)C(=O)N[C@H](Cc1c[nH]cn1)C(N)=O` [NP377, dRdRdRdRdRdRdRdRdRdRdRdRdRdHdH-CONH], for which the “concentration at which activity was maintained” value in the series on C. albicans SC5314 [1] (from pH 5.5-7) worked out at 2 µg/mL. The MIC50 was 32 µg/mL (≈ 13.8 µM) against C. albicans SC5314 [1] (pH 4.5); 4 µg/mL (≈ 1.72 µM) against C. albicans SC5314 [1] (pH 5); 1 µg/mL (≈ 0.431 µM) with C. albicans SC5314 [1] (pH 5.5); 2 µg/mL (≈ 0.861 µM) in the series with C. albicans SC5314 [1] (pH 6); 2 µg/mL (≈ 0.861 µM) against C. albicans SC5314 [1] (pH 6.5); 2 µg/mL (≈ 0.861 µM) in the series on C. albicans SC5314 [1] (pH 7). For the same molecule, the MIC100 in the series on C. albicans SC5314 [1] (pH 4.5) is >64 µg/mL; in the series on C. albicans SC5314 [1] (pH 5), 8 µg/mL (≈ 3.45 µM); against C. albicans SC5314 [1] (pH 5.5) it was 2 µg/mL (≈ 0.861 µM); in the series on C. albicans SC5314 [1] (pH 6), 2 µg/mL (≈ 0.861 µM); in the series on C. albicans SC5314 [1] (pH 6.5) it was 2 µg/mL (≈ 0.861 µM); against C. albicans SC5314 [1] (pH 7), 4 µg/mL (≈ 1.72 µM). Also, in the series with C. albicans SC5314 [2] (10% (v/v) sterile filtered human saliva, pH 7.0), the MIC100 came out at 2 µg/mL. Further, the “antifungal activity in the presence of filtered human saliva” value in the series on C. albicans SC5314 [2] (filtered human saliva) is “retain antifungal activity”.
`N=C(N)NCCC[C@H](NC(=O)[C@H](CCCNC(=N)N)NC(=O)[C@H](CCCNC(=N)N)NC(=O)[C@H](CCCNC(=N)N)NC(=O)[C@H](CCCNC(=N)N)NC(=O)[C@H](CCCNC(=N)N)NC(=O)[C@H](CCCNC(=N)N)NC(=O)[C@H](CCCNC(=N)N)NC(=O)[C@H](CCCNC(=N)N)NC(=O)[C@H](CCCNC(=N)N)NC(=O)[C@H](CCCNC(=N)N)NC(=O)[C@H](CCCNC(=N)N)NC(=O)[C@H](CCCNC(=N)N)NC(=O)[C@@H](N)CCCNC(=N)N)C(=O)O` [Rx14]: the 50% cytotoxic concentration (CC50) at 3 h in the series “in vitro” was > 2500 µg/mL. Moreover, the “Haemolysis RBCs % at 2500” value in series [3] was determined as 0%.
